Laboratory results: PMC5218480 (PLoS ONE, 2017)

System: MV-4-11 cells
Test: Gene expression microarray analysis (Affymetrix PrimeView) and GSEA
Format: cell-based, human
Design: RFU PODN (11730768_x_at) / Fold change /veh PODN (11730768_x_at) / RFU LINC00158 (11744669_a_at) / Fold change /veh LINC00158 (11744669_a_at) / RFU DUSP10 (11751237_a_at) / Fold change /veh DUSP10 (11751237_a_at) / RFU ID3 (11757404_x_at) / Fold change /veh ID3 (11757404_x_at) / RFU PLEKHG5 (11737974_s_at) / Fold change /veh PLEKHG5 (11737974_s_at) / RFU LRRC4B (11730491_at) / Fold change /veh LRRC4B (11730491_at) / RFU GIMAP4 (11747438_a_at) / Fold change /veh GIMAP4 (11747438_a_at) / RFU KRT8 (11758183_x_at) / Fold change /veh KRT8 (11758183_x_at) / RFU CNN1 (11734310_a_at) / Fold change /veh CNN1 (11734310_a_at) / RFU VPS37D (11726825_at) / Fold change /veh VPS37D (11726825_at) / RFU C10orf10 (11716522_x_at) / Fold change /veh C10orf10 (11716522_x_at) / RFU KIR2DL2 /// KIR2DL4 /// KIR2DL5A /// KIR2DL5B /// KIR2DS1 /// KIR2DS2 /// KIR2DS3 /// KIR2DS4 /// KIR3DL3 /// KIR3DL3 /// KIR3DS1 (11738374_at) / Fold change /veh KIR2DL2 /// KIR2DL4 /// KIR2DL5A /// KIR2DL5B /// KIR2DS1 /// KIR2DS2 /// KIR2DS3 /// KIR2DS4 /// KIR3DL3 /// KIR3DL3 /// KIR3DS1 (11738374_at) / RFU C1QL1 (11718748_at) / Fold change /veh C1QL1 (11718748_at) / RFU TMPRSS4 (11747572_a_at) / Fold change /veh TMPRSS4 (11747572_a_at) / RFU HAMP (11756126_x_at) / Fold change /veh HAMP (11756126_x_at) / RFU RNFT2 (11725882_a_at) / Fold change /veh RNFT2 (11725882_a_at) / RFU NR4A2 (11747474_a_at) / Fold change /veh NR4A2 (11747474_a_at) / RFU ABCC12 (11746883_a_at) / Fold change /veh ABCC12 (11746883_a_at) / RFU TMEM136 (11760407_x_at) / Fold change /veh TMEM136 (11760407_x_at) / RFU CLDN22 /// WWC2 (11732394_at) / Fold change /veh CLDN22 /// WWC2 (11732394_at) / RFU HLA-DPB1 (11760878_x_at) / Fold change /veh HLA-DPB1 (11760878_x_at) / RFU SPINT1 (11716480_a_at) / Fold change /veh SPINT1 (11716480_a_at) / RFU GAP43 (11754022_s_at) / Fold change /veh GAP43 (11754022_s_at) / RFU A4GNT (11735810_at) / Fold change /veh A4GNT (11735810_at) / RFU PRB3 (11715151_x_at) / Fold change /veh PRB3 (11715151_x_at) / RFU TUBB4B (11761932_at) / Fold change /veh TUBB4B (11761932_at) / RFU CAPN14 (11732068_a_at) / Fold change /veh CAPN14 (11732068_a_at) / RFU TMCC2 (11721928_a_at) / Fold change /veh TMCC2 (11721928_a_at) / RFU IRGQ (11745062_a_at) / Fold change /veh IRGQ (11745062_a_at) / RFU FAM174B (11720279_a_at) / Fold change /veh FAM174B (11720279_a_at) / RFU TMPRSS4 (11748680_a_at) / Fold change /veh TMPRSS4 (11748680_a_at) / RFU FAM212B (11763350_a_at) / Fold change /veh FAM212B (11763350_a_at) / RFU PLEKHG5 (11743358_a_at) / Fold change /veh PLEKHG5 (11743358_a_at) / RFU ZSCAN30 (11745921_a_at) / Fold change /veh ZSCAN30 (11745921_a_at) / RFU CMKLR1 (11741424_a_at) / Fold change /veh CMKLR1 (11741424_a_at) / RFU LOC101060620 /// MAPK8IP1 (11723275_at) / Fold change /veh LOC101060620 /// MAPK8IP1 (11723275_at) / RFU SPTSSB (11747773_x_at) / Fold change /veh SPTSSB (11747773_x_at) / RFU PRSS12 (11739890_at) / Fold change /veh PRSS12 (11739890_at) / RFU BIN1 (11741810_x_at) / Fold change /veh BIN1 (11741810_x_at) / RFU WNT11 (11732464_a_at) / Fold change /veh WNT11 (11732464_a_at) / RFU C10orf10 (11716521_a_at) / Fold change /veh C10orf10 (11716521_a_at) / RFU C5orf56 (11738089_at) / Fold change /veh C5orf56 (11738089_at) / RFU CYB561 (11721691_x_at) / Fold change /veh CYB561 (11721691_x_at) / RFU ANKRD19P (11752326_a_at) / Fold change /veh ANKRD19P (11752326_a_at) / RFU OR2T12 /// OR2T33 /// OR2T8 (11738714_s_at) / Fold change /veh OR2T12 /// OR2T33 /// OR2T8 (11738714_s_at) / RFU VCAN (11748164_a_at) / Fold change /veh VCAN (11748164_a_at) / RFU JSRP1 (11732532_at) / Fold change /veh JSRP1 (11732532_at) / RFU KRTAP10-11 (11738290_x_at) / Fold change /veh KRTAP10-11 (11738290_x_at) / RFU MYO3A (11730013_a_at) / Fold change /veh MYO3A (11730013_a_at) / RFU EBF3 (11725865_a_at) / Fold change /veh EBF3 (11725865_a_at) / RFU CAMK2N1 (11719241_x_at) / Fold change /veh CAMK2N1 (11719241_x_at) / RFU C5orf56 (11738088_a_at) / Fold change /veh C5orf56 (11738088_a_at) / RFU OLFML3 (11715873_a_at) / Fold change /veh OLFML3 (11715873_a_at) / RFU LOC100653217 /// NTM (11731650_a_at) / Fold change /veh LOC100653217 /// NTM (11731650_a_at) / RFU MAPK11 (11762145_a_at) / Fold change /veh MAPK11 (11762145_a_at) / RFU FIZ1 (11724087_x_at) / Fold change /veh FIZ1 (11724087_x_at) / RFU OASL (11726364_x_at) / Fold change /veh OASL (11726364_x_at) / RFU SOX15 (11748057_x_at) / Fold change /veh SOX15 (11748057_x_at) / RFU CD79A (11719716_a_at) / Fold change /veh CD79A (11719716_a_at) / RFU HIST1H1D (11736915_at) / Fold change /veh HIST1H1D (11736915_at) / RFU CASKIN2 (11723855_a_at) / Fold change /veh CASKIN2 (11723855_a_at) / RFU LOC730098 (11760151_x_at) / Fold change /veh LOC730098 (11760151_x_at) / RFU OR4N2 (11742367_at) / Fold change /veh OR4N2 (11742367_at) / RFU PRRT2 (11749266_a_at) / Fold change /veh PRRT2 (11749266_a_at) / RFU SNX32 (11753110_a_at) / Fold change /veh SNX32 (11753110_a_at) / RFU CDHR5 (11726645_a_at) / Fold change /veh CDHR5 (11726645_a_at) / RFU RCAN1 (11760418_a_at) / Fold change /veh RCAN1 (11760418_a_at) / RFU FAM167A (11723789_a_at) / Fold change /veh FAM167A (11723789_a_at) / RFU FAM26E (11764081_at) / Fold change /veh FAM26E (11764081_at) / RFU ISYNA1 (11749810_s_at) / Fold change /veh ISYNA1 (11749810_s_at) / RFU ACY1 (11761880_at) / Fold change /veh ACY1 (11761880_at) / RFU 11764098_at / Fold change /veh 11764098_at / RFU SAMD14 (11745864_x_at) / Fold change /veh SAMD14 (11745864_x_at) / RFU NPB (11741838_a_at) / Fold change /veh NPB (11741838_a_at) / RFU TMPRSS6 (11731388_a_at) / Fold change /veh TMPRSS6 (11731388_a_at) / RFU KRTAP10-2 (11738614_at) / Fold change /veh KRTAP10-2 (11738614_at) / RFU ARHGAP8 /// PRR5-ARHGAP8 (11727945_x_at) / Fold change /veh ARHGAP8 /// PRR5-ARHGAP8 (11727945_x_at) / RFU KRTAP5-7 /// NADSYN1 (11734609_at) / Fold change /veh KRTAP5-7 /// NADSYN1 (11734609_at) / RFU RASL12 (11751679_a_at) / Fold change /veh RASL12 (11751679_a_at) / RFU CDKN2B (11736163_a_at) / Fold change /veh CDKN2B (11736163_a_at) / RFU PRF1 (11729649_at) / Fold change /veh PRF1 (11729649_at) / RFU, ZNF638 /// ZNF638-IT1 / Fold change vs veh, ZNF638 /// ZNF638-IT1 / RFU, PANK3 / Fold change vs veh, PANK3 / RFU, SH3YL1 / Fold change vs veh, SH3YL1 / RFU, ZEB2 / Fold change vs veh, ZEB2 / RFU, NRIP1 / Fold change vs veh, NRIP1 / RFU, PTTG1IP / Fold change vs veh, PTTG1IP / RFU, CAPN2 / Fold change vs veh, CAPN2 / RFU, MED14 / Fold change vs veh, MED14 / RFU, SNORA58 / Fold change vs veh, SNORA58 / RFU, C1orf63 / Fold change vs veh, C1orf63 / RFU, LRRFIP1 / Fold change vs veh, LRRFIP1 / RFU, NDUFAF7 / Fold change vs veh, NDUFAF7 / RFU, SLC12A2 / Fold change vs veh, SLC12A2 / RFU, IBTK / Fold change vs veh, IBTK / RFU, ESF1 / Fold change vs veh, ESF1 / Fold change vs veh, TMEM50B / RFU, TAOK1 / Fold change vs veh, TAOK1 / RFU, ACBD3 / Fold change vs veh, ACBD3 / RFU, TMA16 / Fold change vs veh, TMA16 / RFU, RWDD3 / Fold change vs veh, RWDD3 / RFU, BCAT1 / Fold change vs veh, BCAT1 / RFU, EDEM3 / Fold change vs veh, EDEM3 / RFU, TMEM33 / Fold change vs veh, TMEM33 / RFU, WDR75 / Fold change vs veh, WDR75 / RFU, AHCTF1 / Fold change vs veh, AHCTF1 / RFU, TFRC / Fold change vs veh, TFRC / RFU, ZDHHC17 / Fold change vs veh, ZDHHC17 / RFU, NOM1 / Fold change vs veh, NOM1 / RFU, ARL8B / Fold change vs veh, ARL8B / RFU, ZBTB11 / Fold change vs veh, ZBTB11 / RFU, TAMM41 / Fold change vs veh, TAMM41 / RFU, KIAA1704 /// LOC100996395 / Fold change vs veh, KIAA1704 /// LOC100996395 / RFU, ING1 / Fold change vs veh, ING1 / RFU, TRMT61B / Fold change vs veh, TRMT61B / RFU, FUBP3 / Fold change vs veh, FUBP3 / RFU, TP53 / Fold change vs veh, TP53 / RFU, TNKS2 / Fold change vs veh, TNKS2 / RFU, ZFP14 / Fold change vs veh, ZFP14 / RFU, ACTR2 / Fold change vs veh, ACTR2 / RFU, PPP3R1 / Fold change vs veh, PPP3R1 / RFU, PIK3R1 / Fold change vs veh, PIK3R1 / RFU, HNRNPA1 / Fold change vs veh, HNRNPA1 / RFU, RNF170 / Fold change vs veh, RNF170 / RFU, ZNF28 / Fold change vs veh, ZNF28 / RFU, RNGTT / Fold change vs veh, RNGTT / RFU, OGT / Fold change vs veh, OGT / RFU, BRD1 / Fold change vs veh, BRD1 / RFU, MARS / Fold change vs veh, MARS / RFU, ZNF655 / Fold change vs veh, ZNF655 / RFU, FAHD1 / Fold change vs veh, FAHD1 / RFU, BDP1 / Fold change vs veh, BDP1 / RFU, LRRCC1 / Fold change vs veh, LRRCC1 / RFU, ARID1A / Fold change vs veh, ARID1A / RFU, ZNF146 / Fold change vs veh, ZNF146 / RFU, ZNF330 / Fold change vs veh, ZNF330 / RFU, GPN3 / Fold change vs veh, GPN3 / RFU, C9orf123 / Fold change vs veh, C9orf123 / RFU, N4BP2L2 / Fold change vs veh, N4BP2L2 / RFU, ARFIP1 / Fold change vs veh, ARFIP1 / RFU, FAM179B / Fold change vs veh, FAM179B / RFU, BCL10 / Fold change vs veh, BCL10 / RFU, UHRF1BP1L / Fold change vs veh, UHRF1BP1L / RFU, BET1 / Fold change vs veh, BET1 / RFU, CNOT2 / Fold change vs veh, CNOT2 / RFU, ZNF268 / Fold change vs veh, ZNF268 / Fold change vs veh, ZNF507 / RFU, DGCR2 / Fold change vs veh, DGCR2 / RFU, WDSUB1 / Fold change vs veh, WDSUB1 / Fold change vs veh, HSP90B1 /// MIR3652 / RFU, ADSS / Fold change vs veh, ADSS / RFU, GK / Fold change vs veh, GK / RFU, ZNF148 / Fold change vs veh, ZNF148 / RFU, TAF9 / Fold change vs veh, TAF9 / RFU, SLC1A5 / Fold change vs veh, SLC1A5 / RFU, SLMO2 / Fold change vs veh, SLMO2 / RFU, ABCC4 / Fold change vs veh, ABCC4 / RFU, LOC101060439 /// RAP1B / Fold change vs veh, LOC101060439 /// RAP1B / RFU, RFX7 / Fold change vs veh, RFX7 / RFU, GTPBP10 / Fold change vs veh, GTPBP10 / RFU, CNEP1R1 / Fold change vs veh, CNEP1R1 / RFU, BIVM-ERCC5 /// ERCC5 / Fold change vs veh, BIVM-ERCC5 /// ERCC5 / RFU, ILF3 / Fold change vs veh, ILF3 / RFU 11762660_at / Fold change /veh 11762660_at / RFU VCAN (11757783_s_at) / Fold change /veh VCAN (11757783_s_at) / RFU DDX43 (11728927_at) / Fold change /veh DDX43 (11728927_at) / RFU KRT8 (11758188_x_at) / Fold change /veh KRT8 (11758188_x_at) / RFU NKD1 (11759106_at) / Fold change /veh NKD1 (11759106_at) / RFU SRD5A1 (11742802_a_at) / Fold change /veh SRD5A1 (11742802_a_at) / RFU TPSAB1 /// TPSB2 (11721975_s_at) / Fold change /veh TPSAB1 /// TPSB2 (11721975_s_at) / RFU GSTM3 (11746129_a_at) / Fold change /veh GSTM3 (11746129_a_at) / RFU IL23R (11737362_x_at) / Fold change /veh IL23R (11737362_x_at) / RFU TMEM51 (11727254_a_at) / Fold change /veh TMEM51 (11727254_a_at) / RFU PIWIL2 (11732686_x_at) / Fold change /veh PIWIL2 (11732686_x_at) / RFU ORM1 (11744905_x_at) / Fold change /veh ORM1 (11744905_x_at) / RFU CCDC152 (11743942_at) / Fold change /veh CCDC152 (11743942_at) / RFU ECM1 (11717891_a_at) / Fold change /veh ECM1 (11717891_a_at) / RFU IL23R (11748794_a_at) / Fold change /veh IL23R (11748794_a_at) / RFU TNFAIP8L3 (11732012_x_at) / Fold change /veh TNFAIP8L3 (11732012_x_at) / RFU MBOAT4 (11741988_at) / Fold change /veh MBOAT4 (11741988_at) / RFU 11764193_at / Fold change /veh 11764193_at / RFU TMEM53 (11763286_at) / Fold change /veh TMEM53 (11763286_at) / RFU MAGEB2 (11727129_at) / Fold change /veh MAGEB2 (11727129_at) / RFU TMEM200A (11744735_a_at) / Fold change /veh TMEM200A (11744735_a_at) / RFU CCDC152 (11751479_a_at) / Fold change /veh CCDC152 (11751479_a_at) / RFU FAM211A (11726209_a_at) / Fold change /veh FAM211A (11726209_a_at) / RFU RGS16 (11746705_a_at) / Fold change /veh RGS16 (11746705_a_at) / RFU VCAN (11755009_s_at) / Fold change /veh VCAN (11755009_s_at) / RFU RHOB (11743442_s_at) / Fold change /veh RHOB (11743442_s_at) / RFU RGS16 (11720943_a_at) / Fold change /veh RGS16 (11720943_a_at) / RFU RGS16 (11720944_at) / Fold change /veh RGS16 (11720944_at) / RFU, VPS4B / Fold change vs veh, VPS4B / RFU, CREB1 / Fold change vs veh, CREB1 / RFU, DNAJC13 / Fold change vs veh, DNAJC13 / RFU, GNAQ / Fold change vs veh, GNAQ / RFU, CDK5R1 / Fold change vs veh, CDK5R1 / RFU, ZRANB3 / Fold change vs veh, ZRANB3 / RFU, CUL4A / Fold change vs veh, CUL4A / RFU, CCNY / Fold change vs veh, CCNY / RFU, UFL1 / Fold change vs veh, UFL1 / RFU, COG3 / Fold change vs veh, COG3 / RFU, DIAPH2 / Fold change vs veh, DIAPH2 / RFU, SKA2 / Fold change vs veh, SKA2 / RFU, AFF3 / Fold change vs veh, AFF3 / RFU, LMF1 / Fold change vs veh, LMF1 / RFU, IPO11 / Fold change vs veh, IPO11 / RFU, DFFB / Fold change vs veh, DFFB / RFU, FOXP1 / Fold change vs veh, FOXP1 / RFU, CARD8 / Fold change vs veh, CARD8 / RFU, STRN3 / Fold change vs veh, STRN3 / RFU, ADK / Fold change vs veh, ADK / RFU, RASSF2 / Fold change vs veh, RASSF2 / RFU, WIPF1 / Fold change vs veh, WIPF1 / RFU, LARP1B / Fold change vs veh, LARP1B / RFU, RASA1 / Fold change vs veh, RASA1 / RFU, RB1 / Fold change vs veh, RB1 / RFU, PPFIA1 / Fold change vs veh, PPFIA1 / RFU, MAT2A / Fold change vs veh, MAT2A / RFU, CCT5 / Fold change vs veh, CCT5 / RFU, WDR92 / Fold change vs veh, WDR92 / RFU, CUX1 / Fold change vs veh, CUX1 / RFU, TTC7A / Fold change vs veh, TTC7A / RFU, TMEM135 / Fold change vs veh, TMEM135 / RFU, DEPTOR / Fold change vs veh, DEPTOR / RFU, CPM / Fold change vs veh, CPM / RFU, DNAJB6 / Fold change vs veh, DNAJB6 / RFU, CACNA2D3 / Fold change vs veh, CACNA2D3 / RFU, DTX4 / Fold change vs veh, DTX4 / RFU, TFCP2 / Fold change vs veh, TFCP2 / RFU, GMCL1 /// GMCL1P1 / Fold change vs veh, GMCL1 /// GMCL1P1 / RFU, AEBP2 / Fold change vs veh, AEBP2 / RFU, SNHG1 /// SNORD22 /// SNORD25 /// SNORD26 /// SNORD27 /// SNORD28 /// SNORD29 /// SNORD31 / Fold change vs veh, SNHG1 /// SNORD22 /// SNORD25 /// SNORD26 /// SNORD27 /// SNORD28 /// SNORD29 /// SNORD31 / Fold change (Aza/veh), C12orf56 (ProbeSet 11735607_a_at) / Fold change (ACY-1035/veh), C12orf56 (ProbeSet 11735607_a_at) / Fold change (Aza/veh), FGFR1OP (ProbeSet 11751329_s_at) / Fold change (ACY-1035/veh), FGFR1OP (ProbeSet 11751329_s_at) / Fold change (Aza/veh), VPS36 (ProbeSet 11739960_a_at) / Fold change (ACY-1035/veh), VPS36 (ProbeSet 11739960_a_at) / RFU SYPL1 (11715823_x_at) / Fold change /veh SYPL1 (11715823_x_at) / RFU IGFBP7 (11715501_s_at) / Fold change /veh IGFBP7 (11715501_s_at) / RFU REEP3 (11722064_at) / Fold change /veh REEP3 (11722064_at) / RFU IGLL1 (11728026_x_at) / Fold change /veh IGLL1 (11728026_x_at): dose or concentration left out as unconfirmed
Conditions: ProbeSet 11724763_s_at; LIST D

Structure (SMILES): Nc1ccc(-c2cccs2)cc1NC(=O)c1ccc2c(c1)cc(C1CC1)n2CCN1CCOCC1 [ACY-1035]
- RFU, DEPTOR: 104.61 RFU
